Experimental data taken from patent US10201558B2, “Compositions of selenoorganic compounds and methods of use thereof” (Alltech, Inc., priority 2014, dated 2019).
Entries after “also recorded” stand apart in the source; their conditions may differ.

Columns and labels:
IMR-32 cells = experiment: Mitochondrial potential assay (Mitotracker Orange); assay type: cell-based, human; conditions: 75 ppb and 150 ppb
Procedure: The mitochondrial potential per cell in control lentiviral KD IMR-32 or IMR-32 FOXO4 knockdown (KD) cells was determined using the Bio-TeK Synergy HT Multi-Mode fluorescence microplate reader with the following modifications. To improve the attachment of IMR-32 cells to culture dishes, cell culture plates were precoated with 0.1% gelatin (Sigma, St. Louis, Mo.).
To reduce cell dislodgment, Mitotracker Orange and Hoechst 33342 fluorescent dyes (diluted in culture media) were directly added to each well after control or compound treatments were added. After dye incubation, cell culture media was carefully replaced with 1×PBS buffer for the quantitation analysis of fluorescence on the microplate reader. Eight samples per each treatment were examined for the above analysis, and the experiments were repeated at least five times. Data are presented as mean±sem of eight samples.
Mitochondrial (MT) dysfunction and dysregulated glucose metabolism are associated with the onset of Alzheimer's Disease (AD). Likewise, as AD progresses, there is strong evidence that Aβ and Tau protein species precipitate further mitochondrial decline. […]

MAPK12 = experiment: QRT-PCR of MAPK12 mRNA in control and FOXO4 KD IMR-32 cells; assay type: cell-based, human; conditions: 24 hours
Procedure: IMR-32 cells were cultured on 12-well plates for 24 hours and then incubated with FOXO4 siRNA lentiviruses (SC-29650V, Santa Cruz) or control siRNA lentiviruses (sc-108080, Santa Cruz) in the presence of Polybrene (5 μg/ml, Santa Cruz) for 24 hours according to the manufacturer's protocol. These lentiviral siRNA-transfected cells were amplified in normal media for 3 days and then incubated with puromycin for 9-14 days to obtain the stable Control KD (stably transfected with the control siRNAs) and FOXO4KD (stably transfected with Foxo4 siRNAs) cells. These control and Foxo4 KD cells were subjected to cell survival, mitochondrial potential and RNA analysis.
Human IMR-32 cells were seeded on gelatinized 6-well (6.5×10^5 cells/well) or 24-well (1.3×10^5 cells/well) plates. Cells were treated with control (0 ppb) or various compounds for 6 hours or 24 hours. Total RNA from these cells was isolated using Trizol (Invitrogen) according to the manufacturer's protocol, and then incubated with DNase I to remove any potential contaminated genomic DNA. Then RNA samples were subjected to real-time PCR analysis using the Applied-Bioscience's RT kit and predesigned Taqman probes (Invitrogen), as described previously (Lan et al EMBO J 2003). The mRNA levels of UCP1, UCP2, UCP3, SLC25A27 (UCP4), SLC25A14 (UCP5), PSEN1, Nicastrin, GSK3B, MAPK11-14, PPARG, APOE, RCAN1, RCAN1.1, G6PC, INSR, IGF1R and FOXO4 were measured. Three to six samples were analyzed in each treatment group. Data were normalized by Actin B (ACTB) or Glyceraldehyde Phosphate Dehydrogenase (GAPDH) mRNA levels in each sample and are presented as mean±SEM of 3-6 samples.
Normal control cells and FOXO4KD cells were incubated with two doses of Compound C for 24 hours, and subjected to QRT-PCR analysis of the MAPK11-14 genes. The relative mRNA expression of all four MAPK genes in normal control IMR-32 cells was assessed. […] Data in Compound C-treated control and FOXO4 KD cells were normalized by their levels in control and FOXO4KD cells, respectively. Mean±SEM of indicated number of samples in the bar graphs. […]

insoluble Aβ1-42 = experiment: ELISA of insoluble (FA-soluble) Aβ1-42 in the brains of APP/PS1 mice; assay type: in vivo, mouse; conditions: diet with 1 ppm Se from Compound C, 6 to 12 months of age, vs control mice
Procedure: (§1) Male APPΔNLh/ΔNLh×PS1P246 L/246 L knock-in model mice of Alzheimer's disease (abbreviated APP/PS1) were genotyped using standard primers for human APP (Amyloid Precursor Protein) and human PS1 (PSEN1). These APP/PS1 mice starting at the age of 6 months, were fed either a control diet containing normal levels of selenium (0.3 ppm from plant and inorganic selenium salt sources) or an experimental diet containing Compound C (the control diet to which was added 1 ppm Se from Compound C) for 6 months.
At 12 months of age, the mice were euthanized and the brains quickly removed, the cerebellum isolated and the hemispheres snap-frozen in liquid nitrogen and then stored at −80° C. for further immunohistochemistry (IHC), protein and RNA analysis. All procedures conducted on these animal studies were pre-approved by the University of Kentucky IACUC committee.
Frozen hemispheres of control- and Compound C-treated APP/PS1 mice were weighed and homogenized in PBS buffer. Insoluble Aβ fractions (formic acid (FA)-soluble fractions) were extracted from the homogenates using standard serial extraction protocols as described previously (Lovell et al, Free Radic Biol Med 2009; 46:1527-33) Insoluble Aβ1-42 levels (in the FA soluble fraction) were determined using standard sandwich ELISAs (Invitrogen), according to the manufacturer's procedure. […]

Neprilysin = experiment: Western blot of Neprilysin in APP/PS1 mouse brains; assay type: in vivo; conditions: APP/PS1 mice, Compound C diet vs control diet
Procedure: as §1, with “months. […]” for “months.”
(§2) Frozen hemispheres of control- and Compound C-treated APP/PS1 mice were weighed and homogenized in PBS buffer, and then subsequently extracted with RIPA buffer (Sigma) containing complete proteinase and phosphatase inhibitors (Fisher Scientific). Protein levels in the samples were determined by micro-BCA protein analysis according to the manufacturer's protocol. […] Positive signals on the membrane blots were detected using Amersham's enhanced chemiluminescence Western Blotting Prime Detection reagents (GE healthcare Lifescience, Pittsburgh, Pa.). Images of these luminescence signals on the membrane blots were captured using the LI-COR Odyssey Fc Image system (Lincoln, Nebr.). Protein band densities in Western blots were determined using NIH Image J software, and then normalized by Actb levels in each samples to obtain the protein levels.

Iba-1 = experiment: Western blot of Iba-1 in APP/PS1 mouse brains; assay type: in vivo; conditions: APP/PS1 mice, Compound C diet vs control diet
Procedure: as §1, with “months. […]” for “months.”
as §2

## C[Se]C[C@H]1O[C@@H](n2cnc3c(N)ncnc32)C(O)C1O (stereo in doubt) [Compound C, 5′-deoxy-5′-methylselenoadenosine]
IMR-32 cells; 6 hours
  MT potential (red fluorescence intensities, micrographs): remarkably enhanced
IMR-32 cells; 6 hours and 24 hours
  MT potential, quantitative analysis normalized by stained cell nuclei: significant increase; also recorded: enhanced
MAPK12; FOXO4KD cells, 75 ppb and 150 ppb
  MAPK12 mRNA levels: none of the mRNA levels of the four MAPK genes in FOXO4KD cells were significantly altered
MAPK12; control KD cells, 75 ppb
  MAPK12 mRNA levels: significant decrease
MAPK12; control KD cells, 150 ppb
  MAPK12 mRNA levels: significantly decreased
Insoluble Aβ1-42
  reduction of FA-soluble Aβ1-42 levels in the brains: about 30%
Neprilysin
  Neprilysin protein levels in the brains: increased; also recorded: elevated
Iba-1
  Iba-1 protein levels in the brains: reduced; also recorded: decreased
